This is an account of results in patent publication US5281710A, “Dynemicin analogs: synthesis, methods of preparation and use” (The Scripps Research Institute, priority 1992, dated 1994).

Where two headings read alike, the source gives them in different places.

One series has as its system cancer cell lines. Nature of the series: cells. The series is classed as cell-based. To be noted: for cytotoxicity (qualitative): cancer cell lines. As for the experimental part:
(§1) In addition to the screening already discussed, several of the before-described compounds and chimeras were screened against several or all of a panel of ten to twenty-five cancerous cell lines as target cells and seven "normal" cell preparations. This screening utilized a sulforhodamine B cytotoxidity assay as discussed below.
SULFORHODAMINE B CYTOTOXICITY ASSAY
a. Stock drug solutions were prepared by dissolving drug in the appropriate solvent (determined during chemical characterization studies) and sterile filtering the drug-solvent solution through a sterile 0.2μ filter unit. An aliquot was taken from each filtered drug solution and the O.D. was measured to determine the drug concentration.
f. Incubate (37° C., 5-10 percent CO2 in humidified incubator) plates for a total of 72 hours. Check plates at 24 hour intervals microscopically for signs of cytotoxicity.
(§2) IC50 values; i.e., the concentration of Compound required to kill one-half of the treated cells, were then calculated.
All other cells or cell lines were obtained from the American Type Culture Collection (ATCC) (all except CHO cells are human or mouse cancer cell lines as described by the ATC).
Tables 1 and 2 herein below provide average IC50 data from five to all ten of the above cancer cells lines for fused ring enediyne compounds disclosed herein. Those tables provide a generic structure and a description of the R group of that generic structure for each compound. Compound numbers as noted hereinbefore are also provided. Table 3 contains data for two fused-ring enediyne compounds (Compounds 47 and 120) as well as data for six chimers. Table 4 contains cancer cell and noraml cell cytotoxicity data for one select fused ring enediyne, Compound 153 against a number of "normal" cell preparations and tumor cell lines. Table 5 contains cancer cell and normal cell cytotoxicity data for another fused ring enediyne, Compound 250 against a similar panel of cells.

The next series has as its system φX174 Form I DNA. Nature of the series: φX174 supercoiled DNA cleavage, agarose gel. The series is classed as biochemical. As for the experimental part: The ethereal solution of Compound 40 produced by the LiAlH4 reduction of Compound 21 (39 mg, 0.10 mmol) was evaporated in vacuo to dryness and the residue dissolved in THF (4 mL) to give a 25 mM solution of Compound 40, assuming complete conversion of Compound 21. […]
Thus, a vial containing a 50 micromolar per base pair solution […] of the same buffer solution and 2.0 microliters of a 5.0 millimolar ethanol solution of Compound 40.
[…] A 2.0 microliter portion of glycerol loading buffer solution containing bromothymol blue indicator was added to each vial. A 10 microliter aliquot was then drawn from each. Gel electrophoresis analysis of the aliquots was performed using a 1.0 percent agarose gel with ethidium bromide run at 115 volts for 1 hour. DNA cleavage was indicated by the formation of nicked relaxed circular DNA (form II) or linearized DNA (form III), which was detected by visual inspection of the gel under 310 nanometer ultraviolet light using ethidium bromide.

Series [1] concerns MOLT-4 (Leukemia) cell line. Nature of the series: cells. The series is classed as cell-based. To be noted: for IC50: read-out: IC50; for potency against Molt-4 relative to the other cell lines: Molt-4 vs average of other cell lines. The protocol:
as §1, §2

The nature of a further series: Chemical stability. Type of series: physicochemical.
The mark [2] stands for this setting: Average data obtained from 5~10 cell lines, read-out: IC50 (average).
The mark [3] stands for this setting: 5.0 mM, pH 8.5, 36 hours, 37° C.

One may read the IC50 as the midpoint of a concentration-inhibition curve. Turning to `CO[C@]12C#C/C=C\C#C[C@@H]3N(C(=O)Oc4ccccc4)c4ccccc4[C@]14O[C@@]34CCC2` (relative stereo) [Compound 46], the half-inhibitory concentration (IC50) with cancer cell lines (setting [2]) is 63 µM.

For the molecule `COc1cccc2c1C(=O)c1c(O)c3c(c(O)c1C2=O)C[C@@](O)(C(=O)CO)C[C@@H]3O[C@H]1C[C@H](N)[C@H](O)[C@H](C)O1` [Doxorubicin, reference compound], the IC50 in the series with cancer cell lines (cancer cells, control drugs, read-out: Range of Average IC50 Values, Cancer Cells) fell in the range of 0.00016 to 0.098 µM.

For the molecule `O=C(OCC[S+]([O-])c1ccccc1)N1c2ccccc2[C@@]23O[C@]24CCC[C@H]3C#C/C=C\C#C[C@H]14` (relative stereo) [Compound 21b], the IC50 in the series on cancer cell lines (setting [2]) is 32 µM.

For the molecule `CC(=O)O[C@]12C#C/C=C\C#C[C@@H]3N(C(=O)Oc4ccccc4)c4cc(O)ccc4[C@]14O[C@@]34CCC2` (relative stereo) [Compound 171], the DNA cleavage result with φX174 Form I DNA (pH 8.5, 24 or 48 hours, 37° C.) is “strong activity”.

`CC(=O)Oc1ccc2c(c1)N(C(=O)Oc1ccccc1)C1C#C/C=C\C#CC3(OC(C)=O)CCCC14OC234` (centres unmarked) [Compound 202]: in the series on φX174 Form I DNA (setting [3]), the DNA cleavage entry is reported as “inert”.

As to `O=C(OCCSc1ccccc1)N1c2ccccc2[C@@]23O[C@]24CCC[C@H]3C#Cc2ccccc2C#C[C@H]14` (relative stereo) [Compound 77], the IC50 in the series on cancer cell lines (setting [2]) was found to be 36 µM.

In the case of `O=C(OCCS(=O)(=O)c1ccccc1)N1c2ccccc2[C@@]23O[C@]24CCC[C@H]3C#Cc2ccccc2C#C[C@H]14` (relative stereo) [Compound 70], the DNA cleavage entry in the series with φX174 Form I DNA (basic conditions, pH 9.0) is “exhibited DNA cleaving properties”. Also, in the series on cancer cell lines (setting [2]), the IC50 was determined as 3.2 µM. Besides, in the series with cancer cell lines, the “cytotoxicity (qualitative)” value is reported as “potent anticancer activity against a variety of cell lines”.

Turning to `CC(C)(C)C(=O)Oc1ccc2c(c1)N(C(=O)Oc1ccccc1)C1C#C/C=C\C#CC3(O)CCCC14OC234` (centres unmarked) [Compound 59a], the DNA cleavage result in the series with φX174 Form I DNA (setting [3]) is given as “inert”. The IC50 with cancer cell lines (setting [2]) amounted to 0.79 µM; in series [1] (Homo sapiens, MOLT-4, Molt-4 leukemia cell line) it was 98 nM.

Regarding `CC(C)(C)C(=O)Oc1ccc2c(c1)N(C(=O)Oc1ccccc1)C1C#C/C=C\C#CC3CCCC14OC234` (centres unmarked) [Compound 59b], the DNA cleavage result with φX174 Form I DNA (setting [3]) is “inert”. Besides, the half-inhibitory concentration (IC50) with cancer cell lines (setting [2]) amounted to 0.2 µM. For the same molecule, the “potency against Molt-4 relative to the other cell lines” value in series [1] is reported as 10,000 times.

On to `C1#CC2Nc3ccccc3C34OC23CCCC4C#Cc2cc3ccccc3cc21` (centres unmarked) [Compound 87a], for which the chemical stability result in “Chemical stability” was “stable at 25 °C”.

`O=C(OCCS(=O)(=O)c1ccccc1)N1c2ccccc2[C@@]23O[C@]24CCC[C@H]3C#Cc2cc3ccccc3cc2C#C[C@H]14` (relative stereo) [Compound 80]: in the series with φX174 Form I DNA (basic conditions, pH 9.0), the DNA cleavage entry was “exhibited DNA cleaving properties”. For the same molecule, the IC50 with cancer cell lines (setting [2]) is 1.6 µM. The “cytotoxicity (qualitative)” value in the series on cancer cell lines is “potent anticancer activity against a variety of cell lines”.

Turning to `CCNC1COC(OC2C(OCCOC34C#CC=CC#CC5N(C(=O)OCCS(=O)(=O)c6ccccc6)c6ccccc6C36OC56CCC4)OC(C)C(=NOC3CC(O)C(SC(=O)c4c(C)c(I)c(OC5OC(C)C(O)C(OC)C5O)c(OC)c4OC)C(C)O3)C2O)CC1OC` (centres unmarked) [Compound 126b], in the series with cancer cell lines (setting [2]), the half-maximal inhibitory concentration (IC50) amounted to 8.7 µM.

For the molecule `COc1ccc2c(c1)C13OC14CCCC3C#C/C=C\C#CC4N2C(=O)OCCS(=O)(=O)c1ccc2ccccc2c1` (centres unmarked) [Compound 41d], the half-maximal inhibitory concentration (IC50) in the series on cancer cell lines (setting [2]) stood at 0.13 µM. For the same molecule, the “potency against Molt-4 relative to the other cell lines” value in series [1] is listed as 10,000 times.

With `C=CS(=O)(=O)c1ccccc1` [phenyl vinyl sulfone, reference compound], the DNA cleavage result is reported as “no DNA cleavage” in the series with φX174 Form I DNA (1.0 mM); “Form II DNA” in the series with φX174 Form I DNA (5.0 mM, pH 8.5 and 9.0, 48 hours, 37° C.).

As for `COc1ccc2c(c1)C13OC14CCCC3C#C/C=C\C#CC4N2C(=O)OCCS(=O)(=O)c1cccc2ccccc12` (centres unmarked) [Compound 41c], the IC50 with cancer cell lines (setting [2]) came out at 0.2 µM. The “potency against Molt-4 relative to the other cell lines” value in series [1] is recorded as 10,000 times.

For the molecule `COc1ccc2c(c1)C13OC14CCCC3C#C/C=C\C#CC4N2C(=O)OCCS(=O)(=O)c1ccccc1` (centres unmarked) [Compound 41b], the 50% inhibitory concentration (IC50) with cancer cell lines (setting [2]) worked out at 0.25 µM. In addition, the “potency against Molt-4 relative to the other cell lines” value in series [1] is given as 10,000 times.

Consider `O=C(OCCSc1ccccc1)N1c2ccccc2[C@@]23O[C@]24CCC[C@H]3C#Cc2cc3ccccc3cc2C#C[C@H]14` (relative stereo) [Compound 88], for which the IC50 in the series on cancer cell lines (setting [2]) amounted to 50 µM.

As for `COC12C#C/C=C\C#CC3Nc4ccccc4C14OC34CCC2` (centres unmarked) [Compound 48], the chemical stability entry in the series “Chemical stability” was “quite stable under basic or neutral conditions”.

As for `O=C(Oc1ccccc1)N1c2ccccc2C23OC24CCCC3C#Cc2cc3ccccc3cc2C#CC14` (centres unmarked) [Compound 87], in the series on cancer cell lines (setting [2]), the 50% inhibitory concentration (IC50) was found to be 3.2 µM.

In the case of `O=C(Oc1ccccc1)N1c2ccccc2C23OC24CCCC3C#Cc2ccccc2C#CC14` (centres unmarked) [Compound 76], the IC50 with cancer cell lines (setting [2]) was determined as 7.9 µM.

As for `COC12C#C/C=C\C#CC3N(C(=O)OCCS(=O)(=O)c4ccccc4)c4ccccc4C14OC34CCC2` (centres unmarked) [Compound 47], the DNA cleavage entry in the series with φX174 Form I DNA (5 mM, pH 8.0, 24 hours) is recorded as “diminished activity against DNA”. Also, in the series on cancer cell lines (setting [2]), the IC50 amounted to 5 µM.

Regarding `CC(=O)OC12C#C/C=C\C#CC3N(C(=O)Oc4ccccc4)c4cc(O)ccc4C14OC34CCC2` (centres unmarked) [Compound 201], in the series with φX174 Form I DNA (setting [3]), the DNA cleavage result is recorded as “significant DNA cleaving action”.

For `CCNC1COC(OC2C(OCCOC34C#CC=CC#CC5N(C(=O)OCCS(=O)(=O)c6ccccc6)c6ccccc6C36OC56CCC4)OC(C)C(NOC3CC(O)C(SC(=O)c4c(C)c(I)c(OC5OC(C)C(O)C(OC)C5O)c(OC)c4OC)C(C)O3)C2O)CC1OC` (centres unmarked) [Compound 127a], the half-maximal inhibitory concentration (IC50) in the series with cancer cell lines (setting [2]) came to 0.14 µM; in series [1] (Molt-4 leukemia cell line), 1 nM. Moreover, the “cytotoxicity (qualitative)” value in the series on cancer cell lines is “particularly effective”. Moreover, the “potency against Molt-4 relative to the other cell lines” value in series [1] was “about 100 times”.

Take `COC12C#C/C=C\C#CC3N(C(=O)Oc4ccccc4)c4cc(O)ccc4C14OC34CCC2` (centres unmarked) [Compound 55]: in the series on φX174 Form I DNA (5 mM, pH 8.0, 24 hours), the DNA cleavage result is recorded as “diminished activity against DNA”.

As for `COc1ccc2c(c1)[C@@]13O[C@]14CCC[C@H]3C#C/C=C\C#C[C@@H]4N2C(=O)Oc1ccccc1` (relative stereo) [Compound 41a], the IC50 with cancer cell lines (setting [2]) stood at 20 µM.

Take `O=C(OCCSc1ccccc1)N1c2ccccc2[C@@]23O[C@]24CCC[C@H]3C#C/C=C\C#C[C@H]14` (relative stereo) [Compound 21a]: the half-maximal inhibitory concentration (IC50) with cancer cell lines (setting [2]) was 63 µM.

For the molecule `O=C(Oc1ccccc1)N1c2ccccc2[C@@]23O[C@]24CCC[C@@]3(O)C#Cc2cc3ccccc3cc2C#C[C@H]14` (relative stereo) [Compound 85], in the series on cancer cell lines (setting [2]), the IC50 turned out to be 20 µM.

On to `CCNC1COC(OC2C(OCCOC34C#CC=CC#CC5N(C(=O)OCCS(=O)(=O)c6ccccc6)c6ccccc6C36OC56CCC4)OC(C)C(NOC3CC(O)C(SC(=O)c4c(C)c(I)c(OC5OC(C)C(O)C(OC)C5O)c(OC)c4OC)C(C)O3)C2O)CC1OC` (centres unmarked) [Compound 127b], for which the half-maximal inhibitory concentration (IC50) is 7.6 µM with cancer cell lines (setting [2]) and 0.1 nM in series [1] (Molt-4 leukemia cell line). Moreover, in the series with cancer cell lines, the “cytotoxicity (qualitative)” value is reported as “particularly effective”.

For the molecule `O=C(Oc1ccccc1)N1c2ccccc2[C@@]23O[C@]24CCC[C@@]3(O)C#Cc2ccccc2C#C[C@H]14` (relative stereo) [Compound 74], the IC50 in the series with cancer cell lines (setting [2]) is 20 µM.

In the case of `CCNC1COC(OC2C(OCCOC34C#CC=CC#CC5N(C(=O)OCCS(=O)(=O)c6ccccc6)c6ccccc6C36OC56CCC4)OC(C)C(=NOC3CC(O)C(SC(=O)c4c(C)c(I)c(OC5OC(C)C(O)C(OC)C5O)c(OC)c4OC)C(C)O3)C2O)CC1OC` (centres unmarked) [Compound 126a], the IC50 with cancer cell lines (setting [2]) worked out at 44 µM.

With `COC(=O)COC12C#C/C=C\C#CC3N(C(=O)Oc4ccccc4)c4ccccc4C14OC34CCC2` (centres unmarked) [Compound 24b], the IC50 in the series on cancer cell lines (setting [2]) stood at 5 µM.

For `O=C(OCCS(=O)(=O)c1ccccc1)N1c2ccccc2C23OC24CCCC3(OCCO)C#C/C=C\C#CC14` (centres unmarked) [Compound 120], the IC50 in the series with cancer cell lines (setting [2]) worked out at 40 µM.
